According to patent publication US10688099B2, “Methods for modulating the amount of RNA transcripts” (PTC Therapeutics, Inc., priority 2013, dated 2020):

Tested on: SMN2 FL and SMN2 Δ7 mRNA
Assay: RT-qPCR analysis of SMN2 full length (FL) and Δ7 mRNAs in cultured cells
Assay type: cell-based, human
Conditions: FIG. 1
Procedure: Cells are plated at a certain density in an appropriate medium in 96-well flat-bottom plates. The plate is immediately swirled to ensure even distribution of the cells to ensure the formation of an even monolayer of cells and incubated for 6-24 hrs at 37° C. Cells are then treated with serially diluted test compound (e.g., 3.16-fold dilution factor, 0.5% final concentration of DMSO), in duplicate, for desired time under appropriate conditions (e.g., 37° C., 5% CO2, 100% relative humidity). After supernatant removal, cells are lysed (e.g., in Cells-To-Ct lysis buffer, Life Technologies). The levels of RNA of interest, and a reference RNA (e.g., GAPDH mRNA) are quantified (e.g., by using Taqman-based RT-qPCR) by assays designed to detect each mRNA of interest specifically. The forward and reverse primers are used at the appropriate concentration (e.g., 0.1-1 μM), as well as the probe (e.g., 0.1 to 0.3 μM). GAPDH primers are typically at 0.1 μM and the probe at 0.075 μM. RT-qPCR is carried out using an appropriate protocol. One example of such a protocol is the following temperatures for indicated time: Step 1: 48° C. (15 min); Step 2: 95° C. (10 min); Step 3: 95° C. (15 sec); Step 4: 60° C. (1 min); then, repeat Steps 3 and 4 for a total of 40 cycles. Fluorescence is recorded in each cycle at the end of the Step 4 incubation. […] The Ct values for each mRNA are converted to mRNA abundance using actual PCR efficiencies, and may be calculated essentially as described in Liu and Saint (Anal Biochem 302:52). […]
GM03813 (Coriell Institute) and PNN 1-46 fibroblasts (Columbia University) derived from SMA Type I patients were plated at 5,000 cells/well in 200 μL Dulbecco's modified Eagle's medium (DMEM) with GlutaMAX and 10% fetal bovine serum (FBS) (Life Technologies, Inc.) in 96-well plates, and incubated for 6 hours in a cell culture incubator (37° C., 5% CO2, 100% relative humidity). […] The mRNA levels of SMN2 FL, SMN2 Δ7 and GAPDH were quantified using Taqman-based RT-qPCR and SMN2-specific primers and probes in Table 5 (purchased from Life Technologies, Inc.). […]

[1] = SMA Type I patient fibroblasts, treatment for 24 hours

CCN1CCC(c2cc(C)c3nc(-c4cc5c(C)nc(C)cn5n4)cc(=O)n3c2)CC1 [Compound 702]
splicing alteration of SMN2 transcripts (SMA Type I fibroblast cells (PNN 1-46), 500 nM, 24 hours): complete splicing alteration of all SMN2 transcripts
expression of exon 7 lacking (Δ7) mRNA [1]: dose dependent expression
expression of full length (FL) mRNA [1]: dose dependent expression
